Test results as given in PubChem BioAssay (NCI).
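Tested at 5 concentrations; 48 h exposure; 96-well plates; endpoints linearly interpolated, else capped at highest concentration. GI50: concentration for 50% inhibition of growth. At the TGI there is no net growth.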

Experiments:
Experiment in all cases: NCI anticancer screen, dose series, 48 h
[1] = test system: SW-620 colon
[2] = test system: DU-145 prostate
[3] = test system: A549 NSCLC
[4] = test system: K-562 leukemia
[5] = test system: SF-539 CNS
[6] = test system: SNB-75 CNS
[7] = test system: SK-OV-3 ovarian
[8] = test system: HCC-2998 colon
[9] = test system: CCRF-CEM leukemia
[10] = test system: SNB-19 CNS

Row | SMILES | GI50 [1] | TGI [1] | GI50 [2] | TGI [2] | GI50 [3] | TGI [3] | GI50 [4] | TGI [4] | GI50 [5] | TGI [5] | GI50 [6] | TGI [6] | GI50 [7] | TGI [7] | GI50 [8] | TGI [8] | GI50 [9] | TGI [9] | GI50 [10] | TGI [10]
1 | CCOC(=O)c1ccc2c(c1)[n+](=O)c(C(C)=O)c(C(F)(F)F)n2[O-] | 1.52 µM | 3.26 µM | 1.57 µM | 2.96 µM | 2.04 µM | 4.39 µM | 1.16 µM | 2.52 µM | 1.71 µM | 3.31 µM | 1.55 µM | 3 µM | 1.64 µM | 3.34 µM | 1.05 µM | 2.45 µM | 1.68 µM | 4.59 µM | 1.73 µM | 4.18 µM
2 | COc1cccc2c1C(=O)OC2c1cccc2ccccc12 (stereo not given) |  | > 100 µM |  | > 100 µM |  | > 100 µM |  | > 100 µM |  | > 100 µM |  | 68.4 µM |  | > 100 µM |  | > 100 µM |  | > 100 µM |  | > 100 µM
3 | O=C(CC(=O)c1cccc(Cl)c1)c1cccc(Cl)c1 | 2.14 µM | > 100 µM | 2.77 µM | > 100 µM | 4.68 µM | > 100 µM | 1.12 µM | > 100 µM | 2.91 µM | > 100 µM | 3.09 µM | > 100 µM | 3.85 µM | > 100 µM | 5.31 µM | > 100 µM | 0.874 µM | > 100 µM | 6.68 µM | > 100 µM
4 | Cc1cccc(NC(=O)/C=C/c2ccc([N+](=O)[O-])cc2)c1 |  | > 60.2 µM |  | > 55 µM |  | > 56.2 µM |  | > 100 µM |  | > 74.1 µM |  | > 60.4 µM |  | > 61.5 µM |  | 32.7 µM |  | > 100 µM |  | > 47.9 µM
5 | Oc1[nH]c2ccccc2c1N=Nc1c(F)c(F)c(F)c(F)c1F |  | > 72.8 µM |  | > 100 µM |  | > 100 µM |  | 33.5 µM |  | > 100 µM |  | > 100 µM |  | > 100 µM |  | > 100 µM |  | 16.5 µM |  | > 100 µM
6 | CCS(=O)(=O)c1ccc(OC)c(Nc2ncc(-c3ccccc3Cl)o2)c1 | 8.38 µM | > 25 µM | 10.1 µM | > 25 µM | 10 µM | > 25 µM | 11 µM | > 25 µM | 10.6 µM | > 25 µM | 9.11 µM | 24.6 µM | 8.47 µM | > 25 µM | 18.1 µM | > 25 µM | 9.78 µM | > 25 µM | > 21.9 µM | > 25 µM
7 | Cc1cn(-c2ccc(S(C)(=O)=O)cc2)c(-c2ccc(Cl)cc2)n1 | > 100 µM | > 100 µM | > 100 µM | > 100 µM | > 100 µM | > 100 µM | > 100 µM | > 100 µM | > 100 µM | > 100 µM | > 100 µM | > 100 µM | > 100 µM | > 100 µM | > 100 µM | > 100 µM | > 100 µM | > 100 µM | > 100 µM | > 100 µM
8 | COc1ccc(C(CC(=O)c2ccccc2)C(C(=O)c2ccccc2)C(c2ccc(OC)cc2)C2C(=O)NC(=S)NC2=O)cc1 (stereo not given) | 14.3 µM | 39.9 µM | 10.5 µM | 32 µM | 8.96 µM | 75.7 µM | 24.8 µM | > 100 µM | 10.1 µM | 36.1 µM | 31.2 µM | > 100 µM | > 100 µM | > 100 µM | 2.46 µM | 16.6 µM | 11.8 µM | > 100 µM | 24.9 µM | > 100 µM
